Common to all, as to assay type: functional
In one experiment the test system is Klebsiella pneumoniae. Briefly: Antibacterial activity against Klebsiella pneumoniae ATCC 10031 after 18 hrs by agar dilution method. Conditions: ATCC 10031, 18 h. A general note: In agar dilution, organisms are placed on agar that contains the substance at set levels.
A further experiment concerns Pseudomonas aeruginosa. Nature of the experiment: Antibacterial activity against Pseudomonas aeruginosa ATCC 9027 after 18 hrs by agar dilution method. Conditions: ATCC 9027, 18 h.
In the next experiment the test system is Bacillus subtilis. Briefly: Antibacterial activity against Bacillus subtilis ATCC 6633 after 18 hrs by agar dilution method. The conditions noted are these: ATCC 6633, 18 h.
The subject of experiment [1] is Staphylococcus epidermidis. Nature of the experiment: Antibacterial activity against Staphylococcus epidermidis ATCC 12228 after 18 hrs by agar dilution method. The conditions noted are these: ATCC 12228, 18 h.
The subject of another experiment is Staphylococcus aureus. Nature of the experiment: Antibacterial activity against Staphylococcus aureus ATCC 6538 after 18 hrs by agar dilution method. The conditions noted are these: ATCC 6538, 18 h.
In the next experiment the test system is Escherichia coli. Nature of the experiment: Antibacterial activity against Escherichia coli ATCC 8739 after 18 hrs by agar dilution method. The conditions noted are these: ATCC 8739, 18 h.

≈ marks a conversion by molar mass, not a printed value. A value given as a limit tells only on which side of the number the result lay.

For orientation: MIC means the smallest concentration in the dilution series that meets the test's criterion for growth inhibition. High values mean a need for much substance, low ones inhibition by little substance. Consider `O=C(O)c1cn(C2CC2)c2cc(N3CCN(Cc4ccc([N+](=O)[O-])o4)CC3)c(F)cc2c1=O`, for which the minimum inhibitory concentration (MIC) against Klebsiella pneumoniae stood at 0.39 µg/mL (≈ 0.854 µM); against Pseudomonas aeruginosa, 3.13 µg/mL (≈ 6.86 µM); in the experiment with Bacillus subtilis, 0.78 µg/mL (≈ 1.71 µM); in experiment [1], 1.56 µg/mL (≈ 3.42 µM); against Staphylococcus aureus it was 0.39 µg/mL (≈ 0.854 µM); in the experiment with Escherichia coli it was 1.56 µg/mL (≈ 3.42 µM).

As for `C[C@H]1COc2c(N3CCN(Cc4ccc([N+](=O)[O-])o4)CC3)c(F)cc3c(=O)c(C(=O)O)cn1c23`, the minimal inhibitory concentration (MIC) in the experiment with Klebsiella pneumoniae was 1.56 µg/mL (≈ 3.3 µM); in the experiment on Pseudomonas aeruginosa it was 12.5 µg/mL (≈ 26.5 µM); against Bacillus subtilis it was 0.78 µg/mL (≈ 1.65 µM); in experiment [1], 0.39 µg/mL (≈ 0.826 µM); in the experiment on Staphylococcus aureus, 1.56 µg/mL (≈ 3.3 µM); in the experiment with Escherichia coli, 0.78 µg/mL (≈ 1.65 µM).

`C[C@H]1COc2c(N3CCN(C)CC3)c(F)cc3c(=O)c(C(=O)O)cn1c23.C[C@H]1COc2c(N3CCN(C)CC3)c(F)cc3c(=O)c(C(=O)O)cn1c23.O` [LEVOFLOXACIN]: the minimal inhibitory concentration (MIC) was 0.39 µg/mL with Klebsiella pneumoniae; 3.13 µg/mL with Pseudomonas aeruginosa; 0.78 µg/mL against Bacillus subtilis; 0.39 µg/mL in experiment [1]; 0.39 µg/mL in the experiment on Staphylococcus aureus.

With `CCn1cc(C(=O)O)c(=O)c2cc(F)c(N3CCNCC3)cc21` [NORFLOXACIN], the MIC turned out to be 0.39 µg/mL (≈ 1.22 µM) against Klebsiella pneumoniae; 1.56 µg/mL (≈ 4.89 µM) with Pseudomonas aeruginosa; 0.195 µg/mL (≈ 0.611 µM) in the experiment with Bacillus subtilis; 0.39 µg/mL (≈ 1.22 µM) in experiment [1]; 0.39 µg/mL (≈ 1.22 µM) in the experiment with Staphylococcus aureus; 0.195 µg/mL (≈ 0.611 µM) against Escherichia coli.

For the compound `CCn1cc(C(=O)O)c(=O)c2cc(F)c(N3CCN(Cc4ccc([N+](=O)[O-])o4)CC3)nc21`, the MIC against Klebsiella pneumoniae was 3.13 µg/mL (≈ 7.03 µM); in the experiment with Pseudomonas aeruginosa it was 12.5 µg/mL (≈ 28.1 µM); against Bacillus subtilis, 6.25 µg/mL (≈ 14 µM); in experiment [1], 3.13 µg/mL (≈ 7.03 µM); against Staphylococcus aureus it was 0.39 µg/mL (≈ 0.876 µM); against Escherichia coli, 6.25 µg/mL (≈ 14 µM).

With `C[C@H]1COc2c(N3CCNCC3)c(F)cc3c(=O)c(C(=O)O)cn1c23` [N-DESMETHYL LEVOFLOXACIN], the MIC in the experiment with Klebsiella pneumoniae is 0.39 µg/mL (≈ 1.12 µM); against Pseudomonas aeruginosa, above 6.25 µg/mL; in the experiment with Bacillus subtilis, 1.56 µg/mL (≈ 4.49 µM); in experiment [1], 1.56 µg/mL (≈ 4.49 µM); in the experiment on Staphylococcus aureus, 3.13 µg/mL (≈ 9.01 µM).

Take `O=C(O)c1cn(C2CC2)c2cc(N3CCN(Cc4ccc([N+](=O)[O-])cc4)CC3)c(F)cc2c1=O`: the minimum inhibitory concentration (MIC) was 12.5 µg/mL (≈ 26.8 µM) in the experiment with Klebsiella pneumoniae; 50 µg/mL (≈ 107 µM) in the experiment on Pseudomonas aeruginosa; 3.13 µg/mL (≈ 6.71 µM) with Bacillus subtilis; 3.13 µg/mL (≈ 6.71 µM) in experiment [1]; 3.13 µg/mL (≈ 6.71 µM) with Staphylococcus aureus; 3.13 µg/mL (≈ 6.71 µM) with Escherichia coli.

For `COc1c(N2CCN(Cc3ccc([N+](=O)[O-])o3)C(C)C2)c(F)cc2c(=O)c(C(=O)O)cn(C3CC3)c12` (stereo unspecified), the MIC against Klebsiella pneumoniae stood at 1.56 µg/mL (≈ 3.12 µM); against Pseudomonas aeruginosa it was 6.25 µg/mL (≈ 12.5 µM); against Bacillus subtilis, 3.13 µg/mL (≈ 6.25 µM); in experiment [1] it was 1.56 µg/mL (≈ 3.12 µM); against Staphylococcus aureus it was 0.78 µg/mL (≈ 1.56 µM); against Escherichia coli it was 3.13 µg/mL (≈ 6.25 µM).

On to `COc1c(N2CCNC(C)C2)c(F)cc2c(=O)c(C(=O)O)cn(C3CC3)c12` (stereo unspecified) [GATIFLOXACIN], for which the MIC came to 0.195 µg/mL (≈ 0.519 µM) in the experiment with Klebsiella pneumoniae; 0.78 µg/mL (≈ 2.08 µM) against Pseudomonas aeruginosa; 0.78 µg/mL (≈ 2.08 µM) against Bacillus subtilis; 0.78 µg/mL (≈ 2.08 µM) in experiment [1]; 0.78 µg/mL (≈ 2.08 µM) with Staphylococcus aureus; 1.56 µg/mL (≈ 4.16 µM) in the experiment with Escherichia coli.

Take `CCn1cc(C(=O)O)c(=O)c2cc(F)c(N3CCN(Cc4ccc([N+](=O)[O-])o4)C(C)C3)c(F)c21` (racemic): the minimum inhibitory concentration (MIC) is 6.25 µg/mL (≈ 13.1 µM) against Klebsiella pneumoniae; 25 µg/mL (≈ 52.5 µM) in the experiment on Pseudomonas aeruginosa; 0.097 µg/mL (≈ 0.204 µM) against Bacillus subtilis; 3.13 µg/mL (≈ 6.57 µM) in experiment [1]; 1.56 µg/mL (≈ 3.27 µM) against Staphylococcus aureus; 0.39 µg/mL (≈ 0.819 µM) in the experiment on Escherichia coli.

For `CCn1cc(C(=O)O)c(=O)c2cc(F)c(N3CCN(Cc4ccc([N+](=O)[O-])o4)CC3)cc21`, the MIC in the experiment with Klebsiella pneumoniae was found to be 6.25 µg/mL (≈ 14.1 µM); against Pseudomonas aeruginosa, 25 µg/mL (≈ 56.3 µM); against Bacillus subtilis it was 12.5 µg/mL (≈ 28.1 µM); in experiment [1], 3.13 µg/mL (≈ 7.04 µM); in the experiment with Staphylococcus aureus, 1.56 µg/mL (≈ 3.51 µM); against Escherichia coli, 6.25 µg/mL (≈ 14.1 µM).

Take `O=C(O)c1cn(C2CC2)c2cc(N3CCNCC3)c(F)cc2c1=O` [CIPROFLOXACIN]: the MIC against Klebsiella pneumoniae was 0.049 µg/mL (≈ 0.148 µM); against Pseudomonas aeruginosa, 0.39 µg/mL (≈ 1.18 µM); against Bacillus subtilis it was 0.195 µg/mL (≈ 0.589 µM); in experiment [1], 0.195 µg/mL (≈ 0.589 µM); with Staphylococcus aureus it was 0.195 µg/mL (≈ 0.589 µM); against Escherichia coli it was 0.097 µg/mL (≈ 0.293 µM).

Take `CCn1cc(C(=O)O)c(=O)c2cc(F)c(N3CCNCC3)nc21` [ENOXACIN]: the MIC against Klebsiella pneumoniae was 0.78 µg/mL (≈ 2.44 µM); in the experiment on Pseudomonas aeruginosa, 1.56 µg/mL (≈ 4.87 µM); against Bacillus subtilis it was 0.195 µg/mL (≈ 0.609 µM); in experiment [1], 0.78 µg/mL (≈ 2.44 µM); against Staphylococcus aureus, 0.39 µg/mL (≈ 1.22 µM); with Escherichia coli it was 0.39 µg/mL (≈ 1.22 µM).

Values taken from ChEMBL document CHEMBL3046802, “7-Piperazinylquinolones with methylene-bridged nitrofuran scaffold as new antibacterial agents” (2013).
